Tests used:
rat myocardial I/R model [1] = experiment: Diameters of the venules of heart coronary vessels after myocardial I/R; format: in vivo; conditions: 5 mg/kg BW/h intravenous drip; entire observation; FIG. 1
Procedure: The rats were anesthetized by intramuscularly injecting 20 wt % urethane (1.25 g/kg) and fixed in the supine position. Neck skin was incised and anterior cervical muscles were separated to expose the trachea. Tracheal intubation was performed. Another end of the intubation was attached to a Small Animal Ventilator (ALC-V8, Shanghai Aoteshai Biology Science and Technology Limited Company, Shanghai, China) so as to carry out pressure breathing under the following conditions: a respiratory ratio of 1:1, a respiratory frequency of 75 times/min and a tidal volume of 12 mL/kg. The rectal temperature, measured with YSI REF 401 (Yellow Spring, Ohio, USA), was maintained at 37 37.5° C. by using a thermal blanket. […] Heart coronary vessel microcirculation had been recorded by a CD video recorder ([…], US). […] The diameter of the venules and RBC velocity under a same visual field were recorded before ischemia, 30 min after ischemia, 30 min after reperfusion and 60 min after reperfusion. Recordings were replayed at 25 frames·s^-1, diameters of the arterioles and the venules as well as RBC velocities were measured with Image-Pro Plus 5.0 software. RBC velocities in the rat's heart arterioles and venules were expressed as “mm/s”, and the diameters of the rat's heart arterioles and venules were expressed as “μm”.

rat myocardial I/R model [2] = experiment: RBC velocity in the venules of heart coronary vessels after myocardial I/R; format: in vivo; conditions: for inhibitory effect on the decreased RBC velocity in the venules caused by I/R: from 30 min after reperfusion
Procedure: The rats were anesthetized by intramuscularly injecting 20 wt % urethane (1.25 g/kg) and fixed in the supine position. Neck skin was incised and anterior cervical muscles were separated to expose the trachea. Tracheal intubation was performed. Another end of the intubation was attached to a Small Animal Ventilator (ALC-V8, Shanghai Aoteshai Biology Science and Technology Limited Company, Shanghai, China) so as to carry out pressure breathing under the following conditions: a respiratory ratio of 1:1, a respiratory frequency of 75 times/min and a tidal volume of 12 mL/kg. The rectal temperature, measured with YSI REF 401 (Yellow Spring, Ohio, USA), was maintained at 37 37.5° C. by using a thermal blanket. The chest was sterilized and opened at the intercostal space between 2nd 4th ribs near the left and right sternal border to expose the heart. The 3⁄8 curved needle threaded with 3-0 suture was used to pass through the site at 1 2 mm below the juncture of the pulmonary artery cone and the left atrial appendage. The suture was ligated. A polyethylene tubule was placed between the silk suture and myocardial tissue, the silk suture was […] to cause ischemia. Ligature was released 30 min later to establish an I/R model. Danshensu+I/R group (DLA+I/R group): a Danshensu aqueous solution (in normal saline, 1.25 mg/ml) was administrated at a dosage of 5 mg/kg BW/h by intravenous drip 20 min before the experiment and continued until the end of the entire experiment. Notoginsenoside R1+I/R group (R1+I/R group): a Notoginsenoside R1 aqueous solution (in normal saline, 1.25 mg/ml) was administrated at a dosage of 5 mg/kg BW/h by intravenous drip 20 min before the experiment and continued until the end of the entire experiment. […] Heart coronary vessel microcirculation had been recorded by a CD video recorder ([…], US). […] The diameter of the venules and RBC velocity under a same visual field were recorded before ischemia, 30 min after ischemia, 30 min after reperfusion and 60 min after reperfusion. Recordings were replayed at 25 frames·s^-1, diameters of the arterioles and the venules as well as RBC velocities were measured with Image-Pro Plus 5.0 software. RBC velocities in the rat's heart arterioles and venules were expressed as “mm/s”, and the diameters of the rat's heart arterioles and venules were expressed as “μm”.

[3] = test system: rat's mesenteric venule walls; conditions: prior researches; rat mesentery, I/R; cited from earlier work
rat's liver = conditions: previous researches, cited from earlier work
[4] = 5 mg/kg BW/h intravenous drip, FIG. 2

## O=C(O)C(O)Cc1ccc(O)c(O)c1 (centres unmarked) [Danshensu, (3,4-dihydroxyphenyl)lactic acid]
Rat myocardial I/R model [1]
  change in the diameters of the venules of the heart coronary vessels: no significant change
Rat myocardial I/R model [2]; [4]
  inhibitory effect on the decreased RBC velocity in the venules caused by I/R: significantly inhibitory effect
Rat myocardial I/R model [2]; 5 mg/kg BW/h intravenous drip, until 60 min after reperfusion, FIG. 2
  course of the inhibitory effect on decreased RBC velocity: does not further improved
Rat myocardial I/R model [2]; rats, summary statement of the description
  amelioration of RBC velocity in the venules of the heart coronary vessels caused by I/R (summary): transiently ameliorate
[3]
  adhesion between leucocytes and venule walls: potential for inhibiting
  expression of leucocytes adhesion molecules CD11b/CD18: potential for inhibiting
  leakage of plasma albumin: potential for inhibiting

## CC(C)=CCC[C@](C)(O[C@@H]1O[C@H](CO)[C@@H](O)[C@H](O)[C@H]1O)[C@H]1CC[C@]2(C)[C@@H]1[C@H](O)C[C@@H]1[C@@]3(C)CC[C@H](O)C(C)(C)[C@@H]3[C@@H](O[C@@H]3O[C@H](CO)[C@@H](O)[C@H](O)[C@H]3O[C@@H]3OC[C@@H](O)[C@H](O)[C@H]3O)C[C@]12C [Notoginsenoside R1]
Rat myocardial I/R model [1]
  change in the diameters of the venules of the heart coronary vessels: no significant change
Rat myocardial I/R model [2]; [4]
  inhibitory effect on the decreased RBC velocity in the venules caused by I/R: does not display a significantly inhibitory effect
rat's liver
  leukocytes adhered to rat's liver caused by I/R: can reduce
rat's liver; rat, I/R
  microcirculation disorder of the liver: can ameliorate

Source: patent US9034398B2, “Traditional Chinese drug comprising Danshen extracts and Sanqi extracts and use thereof” (TASLY Pharmaceutical Group Co., LTD., priority 2009, dated 2015)
